Among the test systems are OVCAR-8 ovarian; SF-295 CNS; SK-MEL-2 melanoma; SF-539 CNS; OVCAR-4 ovarian; UO-31 renal; LOX IMVI melanoma; UACC-62 melanoma; DU-145 prostate.
Common to all, as to test: growth of human tumour cells (NCI), 48 h

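How tested: cells in 96-well plates exposed to compound for 48 hours at five concentrations. Abbreviation: GI50, concentration required for 50% inhibition of growth. The concentration for full growth arrest is given as TGI.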

Turning to `O=c1[nH]c(-c2ccccc2)nc2ccc(Cl)cc12`, the TGI in the assay with OVCAR-8 ovarian, in the assay with SF-295 CNS, in the assay with SK-MEL-2 melanoma, in the assay on SF-539 CNS, with OVCAR-4 ovarian and in the assay with UO-31 renal was greater than 100 µM throughout.

Turning to `CCNc1c(C(=O)N(CC)CC)c(=O)[nH]c2ncccc12`, the TGI with OVCAR-8 ovarian, in the assay on LOX IMVI melanoma, with SF-295 CNS, in the assay with SK-MEL-2 melanoma, in the assay on SF-539 CNS and in the assay on OVCAR-4 ovarian was greater than 100 µM each time. The TGI in the assay with UACC-62 melanoma and in the assay on UO-31 renal was greater than 100 µM in each case.

`CS(=O)(=O)N(CCC#N)c1ccc(/C=N/NC(=O)CC(=O)Nc2cccc(Cl)c2)cc1`: the TGI in the assay on OVCAR-8 ovarian, with LOX IMVI melanoma, with SF-295 CNS, with SK-MEL-2 melanoma, in the assay with SF-539 CNS and in the assay on OVCAR-4 ovarian was greater than 100 µM throughout. Moreover, the TGI with UACC-62 melanoma and with UO-31 renal was greater than 100 µM each time.

In the case of `CCN(CC)c1ccc(N=C2C=CC(=O)c3ncccc32)c(C)c1`, the TGI in the assay with OVCAR-8 ovarian was 10.5 µM; in the assay on LOX IMVI melanoma, 4.39 µM; in the assay with SF-295 CNS it was 22.9 µM; in the assay on SK-MEL-2 melanoma it was 29 µM; in the assay with SF-539 CNS, 19.4 µM; with OVCAR-4 ovarian it was 4.93 µM. For the same compound, the TGI in the assay on UACC-62 melanoma was 16.8 µM; in the assay with UO-31 renal, 30.4 µM.

Consider `CCOC(=O)c1cc2c(n1Cc1cc(OC)cc(OC)c1)-c1oncc1CCC2`, for which the GI50 was 0.169 µM with OVCAR-8 ovarian; 0.119 µM with LOX IMVI melanoma; 0.0291 µM with SF-295 CNS; 0.038 µM in the assay on SK-MEL-2 melanoma; 0.0495 µM with SF-539 CNS; 1.77 µM with OVCAR-4 ovarian. Further, the values for the GI50 with UACC-62 melanoma, in the assay on DU-145 prostate and with UO-31 renal were 0.0714 µM, 0.116 µM and 0.392 µM, respectively. In addition, the TGI is greater than 100 µM with OVCAR-8 ovarian; greater than 100 µM with LOX IMVI melanoma; 0.14 µM in the assay on SF-295 CNS; greater than 100 µM with SK-MEL-2 melanoma; 0.203 µM in the assay on SF-539 CNS; greater than 100 µM in the assay with OVCAR-4 ovarian. In addition, the TGI in the assay on UACC-62 melanoma and with UO-31 renal was greater than 100 µM throughout.

As for `O=C1CCC2CCc3cccc4oc1c2c34` (configuration not stated), the TGI is greater than 100 µM in the assay with OVCAR-8 ovarian; greater than 100 µM in the assay on LOX IMVI melanoma; 84.1 µM in the assay on SF-295 CNS; greater than 100 µM with SF-539 CNS; greater than 100 µM in the assay with OVCAR-4 ovarian; greater than 100 µM in the assay with UACC-62 melanoma.

With `Cc1ccc(C(=O)O/N=C2/CCCCC2CN(C)C)cc1` (configuration not stated), the TGI with OVCAR-8 ovarian, with LOX IMVI melanoma, with SF-295 CNS, with SK-MEL-2 melanoma, in the assay with SF-539 CNS and with OVCAR-4 ovarian was greater than 100 µM in each case. Moreover, the TGI in the assay on UACC-62 melanoma and in the assay with UO-31 renal was greater than 100 µM each time.

Regarding `N#CCCN(CCC#N)c1ccc(/C=C2\N=C(COc3ccc(Cl)cc3Cl)OC2=O)cc1`, the TGI with OVCAR-8 ovarian, in the assay on LOX IMVI melanoma, in the assay with SF-295 CNS, with SK-MEL-2 melanoma, with SF-539 CNS and with OVCAR-4 ovarian was greater than 100 µM throughout. In addition, the TGI with UACC-62 melanoma and in the assay with UO-31 renal was greater than 100 µM each time.

As to `O=C(O)CNS(=O)(=O)c1ccc(NC(=O)c2ccc(F)cc2)cc1`, the TGI in the assay with OVCAR-8 ovarian, in the assay with LOX IMVI melanoma, with SF-295 CNS, with SK-MEL-2 melanoma, in the assay on SF-539 CNS and in the assay on OVCAR-4 ovarian was greater than 100 µM throughout. Besides, the TGI with UACC-62 melanoma and with UO-31 renal was greater than 100 µM each time.

For `Cn1ccnc1C(c1nccn1C)C(C)(C)[N+](=O)[O-]`, the TGI with OVCAR-8 ovarian, with LOX IMVI melanoma, in the assay with SF-295 CNS, with SK-MEL-2 melanoma, with SF-539 CNS and in the assay with OVCAR-4 ovarian was greater than 100 µM in each case. The compound also came in with a TGI in the assay with UACC-62 melanoma of 56.6 µM.

Regarding `CCN(CC)CC(=O)/C=C/c1ccc(C)cc1`, the TGI was 43.8 µM in the assay with OVCAR-8 ovarian; 34.4 µM in the assay on LOX IMVI melanoma; 88.1 µM with SF-295 CNS; 37 µM in the assay on SF-539 CNS; 29.3 µM in the assay on OVCAR-4 ovarian; 32.5 µM with UACC-62 melanoma. The TGI in the assay with UO-31 renal was 39.8 µM.

In the case of `COc1ccccc1/C=C1\CCC(CNc2ccc(Cl)cc2)C1=O` (configuration not stated), the TGI in the assay with OVCAR-8 ovarian stood at 20.7 µM; with LOX IMVI melanoma it was 9.22 µM; with SF-295 CNS, 15.4 µM; in the assay on SK-MEL-2 melanoma, 26.7 µM; in the assay on SF-539 CNS, 16 µM; in the assay on OVCAR-4 ovarian, 28.2 µM. Moreover, the TGI with UACC-62 melanoma was 3.48 µM; with UO-31 renal, 16.1 µM.

`C=CCC12CCC(=O)C=C1CCC1(C2)OCCO1` (configuration not stated): the TGI in the assay on OVCAR-8 ovarian, in the assay with SK-MEL-2 melanoma, with SF-539 CNS, in the assay with OVCAR-4 ovarian, in the assay on UACC-62 melanoma and in the assay with UO-31 renal was greater than 100 µM throughout.

As to `OCCN(CCO)c1cccc(N(CCO)CCO)c1`, the TGI in the assay with OVCAR-8 ovarian, in the assay with LOX IMVI melanoma, in the assay on SF-295 CNS, in the assay on SK-MEL-2 melanoma, with OVCAR-4 ovarian and in the assay with UACC-62 melanoma was greater than 100 µM throughout. This compound came in with a TGI in the assay on UO-31 renal of 92.2 µM.

Consider `N=S(=O)(c1ccccc1)c1ccccc1[N+](=O)[O-]` (configuration not stated), for which the TGI with OVCAR-8 ovarian, in the assay on SF-295 CNS, in the assay on SK-MEL-2 melanoma, in the assay with SF-539 CNS, with OVCAR-4 ovarian and with UACC-62 melanoma was greater than 100 µM throughout. Also, the TGI with UO-31 renal was greater than 100 µM.

As for `Oc1ccc2occ3c2c1CCC3`, the TGI with OVCAR-8 ovarian, in the assay on LOX IMVI melanoma, with SF-295 CNS, in the assay with SF-539 CNS, in the assay on OVCAR-4 ovarian and in the assay with UACC-62 melanoma was greater than 100 µM each time.

On to `CN(C)c1ccc(/C=C/C(=O)C(C)(C)C)cc1Br`, for which the TGI is 54.1 µM in the assay on OVCAR-8 ovarian; greater than 100 µM with SF-295 CNS; 36.7 µM with SK-MEL-2 melanoma; 71 µM in the assay with SF-539 CNS; 52.2 µM with OVCAR-4 ovarian; 34.2 µM in the assay with UACC-62 melanoma. The compound further yielded a TGI in the assay on UO-31 renal greater than 100 µM.

Values taken from PubChem BioAssay (NCI).
